Some results are limits rather than exact numbers.

The target in this assay is recombinant CSE (cystathionine-γ-lyase) (UniProt P32929). Briefly: CSE In Vitro Assay.
By IC50 is commonly meant the point on the concentration scale where inhibition reaches its midpoint. `CCN(N)c1nnn[nH]1` [Compound 13]: the IC50 was less than 25 µM.

Take `COCCN(N)c1nnn[nH]1` [Compound 15]: the IC50 lay within 25 to 100 µM.

`CN(N)c1nnn(C)n1` [Compound 38]: the half-inhibitory concentration (IC50) was greater than 100 µM.

The record behind these values is patent US20150202186A1, “CYSTATHIONINE-(gamma)-LYASE (CSE) INHIBITORS FOR TREATING PAIN” (SOVA PHARMACEUTICALS, INC., priority 2014, published 2015).
